Reference: the supplement of paper PMC4858399

Tests used:
Settings in all cases: exposure time 48 h
[1] = tested on: Caenorhabditis elegans N2; experiment: AC50 for larval growth inhibition (Hill fit); higher = less potent
Procedure, shortened: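 Synchronised C. elegans N2 L1 larvae, 50 per well in 96-well plates, were grown at 20°C for 48 h in K-medium with killed OP50, 1% DMSO and 0.5–200 µM chemical. Worm size was read on a COPAS Biosort as extinction, log-transformed and averaged per well, and only wells holding at least 10 worms were kept. AC50 was obtained by a constrained Hill fit using weighted genetic-algorithm regression, with out-of-range values censored.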

[2] = tested on: Caenorhabditis elegans N2; experiment: mean nematode size ln(EXT) after 48 h, plate-adjusted (DMSO control set to 6) (ln(EXT), control-adjusted); higher = larger nematodes / less growth inhibition
Procedure, shortened: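 Synchronised C. elegans N2 L1 larvae were grown for 48 h at 20°C in K-medium containing killed OP50, 1% DMSO and 0.5–200 µM chemical, at 50 per well and 4–6 wells per treatment. The Biosort recorded extinction for each worm, and a growth model removed debris. Worm size was obtained by natural-logging these values and averaging them per well. For plate adjustment, the vehicle control mean was subtracted and 6 was added.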

[3] = tested on: Caenorhabditis elegans N2; experiment: lowest effective concentration for larval growth inhibition (size below effect threshold); higher = less potent
Procedure, shortened: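 In 96-well plates, 50 C. elegans N2 L1 larvae per well were cultured at 20°C for 48 h in K-medium with killed bacteria and 1% DMSO, plus the chemical at 0.5, 1, 5, 10, 50, 100 or 200 µM. Size was measured as per-worm extinction on a Biosort and log-transformed into well means. Taking the first dose where the plate-adjusted mean size sits under 5.665 and stays there at higher doses gives the lowest effective concentration.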

Compound | AC50 for larval growth inhibition [1] | mean nematode size ln(EXT) (ln) ([2]; 0.5 µM) | mean nematode size ln(EXT) (ln) ([2]; 1 µM) | mean nematode size ln(EXT) (ln) ([2]; 5 µM) | mean nematode size ln(EXT) (ln) ([2]; 10 µM) | mean nematode size ln(EXT) (ln) ([2]; 50 µM) | mean nematode size ln(EXT) (ln) ([2]; 100 µM) | mean nematode size ln(EXT) (ln) ([2]; 200 µM) | lowest effective concentration [3]
NC(=Nc1ccccc1)Nc1ccccc1 [1,3-Diphenylguanidine] | 16.6 µM | 5.67 | 5.74 | 5.62 | 5.6 | 5.63 | 5.64 | 5.55 | 5 µM
Cc1c(C(=O)O)c(O)cc2c1C(=O)c1c(O)c([C@@H]3O[C@H](CO)[C@@H](O)[C@H](O)[C@H]3O)c(O)c(O)c1C2=O [Carminic acid] | 115 µM | 5.97 | 5.92 | 5.91 | 5.96 | 5.97 | 5.46 |  | 100 µM
CCCCOC(=O)c1ccccc1 [Butyl benzoate] | 100 µM | 6 | 5.94 | 5.85 | 5.83 | 6 | 5.76 | 5.53 | 200 µM
CC(=O)[O][Hg][c]1ccccc1 [Phenylmercuric acetate] | 1.02 µM | 5.43 | 5.07 | 4.25 | 3.93 | 4.09 | 4.09 | 3.02 | ≤ 0.5 µM
Sc1nc2ccccc2s1 [2-Mercaptobenzothiazole] | > 200 µM | 5.83 | 5.81 | 5.8 | 5.76 | 5.69 | 5.59 | 5.57 | 100 µM
CCc1nn(C)c(C(=O)NCc2ccc(C(C)(C)C)cc2)c1Cl [Tebufenpyrad] | 1.03 µM | 4.96 | 5.23 | 3.83 | 3.7 | 3.95 | 4.11 | 3.36 | ≤ 0.5 µM
CC(=O)[C@H]1CC[C@H]2[C@@H]3CCC4=CC(=O)CC[C@]4(C)[C@H]3CC[C@]12C [Progesterone] | > 200 µM | 5.84 | 5.84 | 5.86 | 5.9 | 5.72 | 5.95 | 5.58 | 200 µM
CC(C)NC(=O)N1CC(=O)N(c2cc(Cl)cc(Cl)c2)C1=O [Iprodione] | > 200 µM | 5.99 | 5.95 | 5.85 | 6.06 | 5.87 | 5.8 | 5.4 | 200 µM
COc1cc(C(C)C)c2c(c1)S(=O)(=O)N(COc1cc(=O)n3cccc(OCCN4CCCCC4)c3n1)C2=O | > 200 µM | 5.91 | 5.92 | 5.88 | 5.88 | 5.87 | 5.72 | 5.47 | 200 µM
CCN(Cc1c(F)cccc1Cl)c1c([N+](=O)[O-])cc(C(F)(F)F)cc1[N+](=O)[O-] [Flumetralin] | 180 µM | 6.16 | 6.01 | 6 | 6.02 | 6.1 | 6.11 | 3.65 | 200 µM
FC(F)(F)C(F)(F)C(F)(F)C(F)(F)C(F)(F)C(F)(F)CCI [1H,1H,2H,2H-Perfluorooctyl iodide] | 190 µM | 5.99 | 5.98 | 5.95 | 5.96 | 5.94 | 5.86 | 4.39 | 200 µM
O=C(O)C1C(C(=O)O)C2(Cl)C(Cl)=C(Cl)C1(Cl)C2(Cl)Cl (stereo not drawn) [Chlorendic acid] | > 200 µM | 5.71 | 5.85 | 5.82 | 5.84 | 5.76 | 5.65 | 5.45 | 100 µM
Cc1ccc(Cl)cc1 [4-Chlorotoluene] | > 200 µM | 5.8 | 5.74 | 5.72 | 5.77 | 5.8 | 5.63 | 5.37 | 100 µM
CCSC(=O)N(CC)C1CCCCC1 [Cycloate] | 105 µM | 6.06 | 6.1 | 5.93 | 6.05 | 6.03 | 5.76 | 5.06 | 200 µM
Nc1ccc(N=Nc2ccccc2)cc1 [4-Aminoazobenzene] | 31.4 µM | 5.63 | 5.75 | 5.62 | 5.49 | 4.06 | 3.92 | 3.23 | 5 µM
CCCCC(CC)COC(=O)CCCCC(=O)OCC(CC)CCCC (stereo not drawn) [Di(2-ethylhexyl)adipate] | > 200 µM | 5.87 | 5.8 | 5.73 | 5.76 | 5.75 | 5.82 | 5.55 | 200 µM
Oc1c(Cl)c(Cl)c(Cl)c(Cl)c1Cl [Pentachlorophenol] | 146 µM | 5.82 | 5.94 | 5.92 | 5.89 | 5.6 | 5.01 | 4.2 | 50 µM
Oc1ccccc1-c1ccccc1 [2-Phenylphenol] | 179 µM | 5.84 | 5.73 | 5.68 | 5.99 | 6.05 | 5.96 | 5.13 | 200 µM
CNC(=O)ON=C(C)SC [Methomyl] | 91.6 µM | 5.94 | 5.95 | 6.08 | 5.93 | 5.19 | 4.65 | 3.39 | 50 µM
Clc1ccc(C(Cl)(Cl)Cl)cc1 [4-Chlorobenzotrichloride] | 112 µM | 5.94 | 5.93 | 5.97 | 5.9 | 5.65 | 4.93 | 3.11 | 50 µM
ClC1=C(Cl)C2(Cl)C3C4CC(C5OC45)C3C1(Cl)C2(Cl)Cl (stereo not drawn) [Endrin] | 8.83 µM | 5.93 | 5.85 | 4.99 | 4.95 | 3.81 | 3.9 | 3.75 | 5 µM
Clc1ccc(Cl)cc1 [1,4-Dichlorobenzene] | > 200 µM | 5.89 | 5.93 | 5.94 | 5.84 | 5.84 | 5.73 | 5.58 | 200 µM
O=C1CN(/N=C/c2ccc([N+](=O)[O-])o2)C(=O)N1 [Nitrofurantoin] | > 200 µM | 5.9 | 5.88 | 5.88 | 5.88 | 5.81 | 5.84 | 5.46 | 200 µM

Compound | AC50 for larval growth inhibition [1] | mean nematode size ln(EXT) (ln) ([2]; 0.5 µM) | mean nematode size ln(EXT) (ln) ([2]; 1 µM) | mean nematode size ln(EXT) (ln) ([2]; 5 µM) | mean nematode size ln(EXT) (ln) ([2]; 10 µM) | mean nematode size ln(EXT) (ln) ([2]; 50 µM) | mean nematode size ln(EXT) (ln) ([2]; 100 µM) | mean nematode size ln(EXT) (ln) ([2]; 200 µM) | lowest effective concentration [3]
ClC1=C(Cl)C2(Cl)C3C(Cl)C(Cl)CC3C1(Cl)C2(Cl)Cl (stereo not drawn) [Chlordane] | 8.58 µM | 5.98 | 5.93 | 5.24 | 4.63 | 3.8 | 3.81 | 3.48 | 5 µM
CCOC(=O)O[C@H](C)OC(=O)c1ccc2c(c1)cc(C(=O)NC1CCN(C(C)C)CC1)n2Cc1cc(-c2ccc(Cl)s2)on1 | 78.2 µM | 5.85 | 5.86 | 5.87 | 5.76 | 4.76 | 4.59 | 3.71 | 50 µM
Oc1cccc2cccnc12 [8-Hydroxyquinoline] | > 200 µM | 5.89 | 5.92 | 5.91 | 5.83 | 5.78 | 5.72 | 5.56 | 200 µM
CN1C(=O)CC[C@H]1c1cccnc1 [(-)-Cotinine] | > 200 µM | 5.86 | 5.93 | 5.88 | 5.82 | 5.9 | 5.87 | 5.65 | 200 µM
CCOC(=O)COc1ccc2c(c1)CC(NCC(O)c1cccc(Cl)c1)CC2 (stereo not drawn) | > 200 µM | 5.79 | 5.81 | 5.87 | 5.81 | 5.76 | 5.75 | 5.5 | 200 µM
CCOc1cc(Oc2ccc(C(F)(F)F)cc2Cl)ccc1[N+](=O)[O-] [Oxyfluorfen] | 3.64 µM | 5.57 | 5.42 | 4.64 | 3.99 | 3.63 | 3.63 | 3.46 | ≤ 0.5 µM
CCC(C)N(C)C(=O)c1cc2ccccc2c(-c2ccccc2Cl)n1 (stereo not drawn) | 95.2 µM | 5.92 | 5.93 | 5.99 | 5.97 | 6.11 | 5.55 | 5.43 | 100 µM
CCCCCCCCCC[N+](C)(C)CCCCCCCCCC [Didecyl dimethyl ammonium chloride] | 17 µM | 5.9 | 5.91 | 5.88 | 5.51 | 3.71 | 3.63 | 3.62 | 10 µM
CCCCCCCCOc1ccc(C(=O)c2ccccc2)c(O)c1 [2-Hydroxy-4-(octyloxy)benzophenone] | 19.2 µM | 5.91 | 5.98 | 5.92 | 5.95 | 5.61 | 5.56 | 5.64 | 50 µM
CN1CCC[C@H]1c1cccnc1 [Nicotine] | > 200 µM | 5.88 | 5.83 | 5.83 | 5.87 | 5.87 | 5.38 | 5.56 | 100 µM
On1ccccc1=S [Sodium (2-pyridylthio)-N-oxide] | > 200 µM | 5.88 | 5.86 | 5.84 | 5.87 | 5.74 | 5.74 | 5.51 | 200 µM
O=C(Nc1ccccc1-c1ccc(Cl)cc1)c1cccnc1Cl [Boscalid] | 9.83 µM | 6.09 | 6 | 5.75 | 5.68 | 4.94 | 5.21 | 5.39 | 50 µM
CCCCCCCCCCCC(=O)OC [Methyl laurate] | > 200 µM | 5.77 | 5.99 | 5.92 | 5.94 | 5.74 | 5.82 | 4.96 | 200 µM
CCCCCCCC/C=C\CCCCCCCC(=O)OC[C@@H](O)[C@H]1OC[C@H](O)[C@H]1O [Sorbitan, mono-(9Z)-9-octadecenoate] | > 200 µM | 5.92 | 5.88 | 5.92 | 5.89 | 5.89 | 5.83 | 5.34 | 200 µM
CC(COc1ccc(Oc2ccccc2)cc1)Oc1ccccn1 (stereo not drawn) [Pyriproxyfen] | 1.37 µM | 5.55 | 5.44 | 5.14 | 4.87 | 4.84 | 4.7 | 4.81 | ≤ 0.5 µM
O=P(OC(CCl)CCl)(OC(CCl)CCl)OC(CCl)CCl [Tris(1,3-dichloro-2-propyl) phosphate (TDCPP)] | 117 µM | 5.85 | 5.86 | 5.83 | 5.77 | 5.39 | 4.98 | 3.63 | 50 µM
CCCN(CCC)c1c([N+](=O)[O-])cc(C(F)(F)F)c(N)c1[N+](=O)[O-] [Prodiamine] | > 200 µM | 6.07 | 6.18 | 6.02 | 5.75 | 5.99 | 5.92 | 5.1 | 200 µM
C/C=C/c1ccc(OC)cc1 [(E)-Anethole] | > 200 µM | 6.06 | 5.98 | 6.01 | 6.06 | 5.97 | 5.96 | 5.49 | 200 µM
CCN(CC)N=O [N-Nitrosodiethylamine] | > 200 µM | 5.96 | 5.9 | 5.89 | 5.87 | 5.77 | 5.75 | 5.66 | 200 µM
C#CCOS(=O)OC1CCCCC1Oc1ccc(C(C)(C)C)cc1 (stereo not drawn) [Propargite] | 150 µM | 5.95 | 6.19 | 5.99 | 6.05 | 5.82 | 5.88 | 3.35 | 200 µM
CN(C)C(=O)Nc1ccc(Cl)c(Cl)c1 [Diuron] | 179 µM | 6.19 | 6.62 | 6.24 | 6.31 | 6.48 | 6.26 | 5.16 | 200 µM
CCN(CC)C(=O)C(C)Oc1cccc2ccccc12 (stereo not drawn) [Napropamide] | 97.3 µM | 5.97 | 5.95 | 5.93 | 6 | 6.01 | 5.62 | 5.43 | 100 µM
Clc1cccc(C(Cl)(Cl)Cl)n1 [Nitrapyrin] | 108 µM | 5.36 | 5.48 | 5.3 | 5.47 | 5.92 | 5.54 | 4.05 | 100 µM
